Measurements from US9771589B2, “Treating hepatitis virus infection by modulating microRNAs miR-130a, miR-130b, miR-204, or miR-1236” (priority 2013, dated 2017).

Assays:
HBV = HBV DNA replication after cotransfection/treatment, Southern blot; type: cell-based, hepatitis B virus (HBV ayw)
Excerpt: The methods to construct the miRNA expression vectors are as detailed elsewhere. Chen, H. L. et al. PloS one 7, e34116 (2012). PCR products were sub-cloned from TA cloning vector (RBC) to pSuper (OligoEngine, Inc) by Hind III digestion. All plasmids were confirmed by sequencing. Approximately 8-400 fold higher level of microRNA expression was detected by transfection and stem loop RT-PCR analysis. […] The PPARγ and PGC1α expression vectors were from GeneCopoeia.
Human hepatoma Huh7 and HepG2 cells were maintained as described previously Chua, P. K., et al. Journal of virology 84, 2340-2351 (2010), Le Pogam, S., et al., Journal of virology 79, 1871-1887 (2005). In general, the phenotype of viral replication and the effect of microRNA are stronger in HepG2 than Huh7 cells. However, Huh7 cells are easier to passage and transfect. Therefore, we used these two cell lines interchangeably.
Rosiglitazone and GW9662 were from Sigma. HepG2 and Huh7 cells were seeded in 6-well tissue culture plates at 5×10, Quasdorff, M. et al. Journal of viral hepatitis 17, 527-536 (2010) cells/well. At 24 h post-transfection, Rosiglitazone or GW9662 in 0.1% DMSO was added to medium. Culture medium was changed ever two days before harvest.
HBV core particle-associated DNA, total cellular cytoplasmic RNA, and microRNA were analyzed by Northern blot as described previously. […]

[1] = test system: HBV core protein (HBc), surface antigen (HBsAg) and e antigen (HBeAg); experiment: HBV protein expression (HBc Western blot; HBsAg, HBeAg ELISA); type: cell-based, hepatitis B virus (HBV ayw)
Excerpt: (§1) Anti-HBc (Dako), anti-PPARγ (Santa Cruz), anti-GAPDH, anti-PKLR, anti-G6Pase, anti-tubulin, anti-PGC1α (Origene), anti-PCK1 (Abnova), anti-GCK (Biovision), Secondary antibodies include mouse anti-rabbit-HRP, goat anti-mouse-HRP (GeneTex, Taiwan) and donkey anti-goat-HRP (Santa Cruz).
Chua, P. K., et al. Journal of virology 84, 2340-2351 (2010),

HepG2 cells = experiment: Measurement of glucose production in cell culture; type: cell-based, human
Protocol: The glucose level of HBV transgenic mice was measured using a kit of DRI-CHEM SLIDE GLU-PIII (FUJIFILM, JAPAN). Ten microliters of mouse serum was deposited on a FUJI DRI-CHEM SLIDE GLU-PIII. Glucose oxidase (GOD) catalyzes the oxidization of sample glucose to generate hydrogen peroxide which then reacts with dye precursors and forms red dye. The optical reflection density was measured at 505 nm by the FUJI DRI-CHEM analyzer and converted into the glucose concentration […]. For the measurement of glucose concentration in cell culture, HBV producing cells (HepG2 and Q7 cells) were treated with PPARγ antagonist, GW9662 at indicated concentrations. Twenty-four hours before glucose measurement, the medium was replaced with 1 ml of glucose-free DMEM, supplemented with 2 mM sodium pyruvate. After 16 hrs incubation, 50 μl of medium was collected and the glucose concentration (mM) was measured using the glucose colorimetric assay (Biovision).

[2] = test system: HBV pregenomic RNA (pgRNA); experiment: HBV RNA in transfected cells, Northern blot; type: cell-based, hepatitis B virus (HBV ayw); settings: HepG2, total cytoplasmic RNA of cotransfected culture
Protocol: HBV core particle-associated DNA, total cellular cytoplasmic RNA, and microRNA were analyzed by Northern blot as described previously. Chua, P. K., et al. Journal of virology 84, 2340-2351 (2010), Le Pogam, S., et al., Journal of virology 79, 1871-1887 (2005).

[3] = test system: HBV 3′ UTR (nt 1521-2122); experiment: 3′ UTR luciferase reporter assay with HBV nt 1521-2122; type: cell-based, hepatitis B virus (HBV ayw); settings: Huh7 cells, cotransfection with miRNA expression vector
Excerpt: (§2) Assay for 3′ UTR or enhancer/promoter was as described previously. Chen, H. L., et al., PloS one 7, e34116 (2012).

HBV enhancer II = experiment: HBV enhancer/promoter luciferase reporter assay; type: cell-based, hepatitis B virus; settings: Huh7 cells, pGL3/enhII reporter
Excerpt: as §2

[4] = test system: SP1, PPAR α, CEBPb, and HNF4; experiment: Expression of other hepatic transcription factors in miR-130a expressing cell lines; type: cell-based, human
Protocol: (§3) Briefly, 2 μg of total RNA was reverse transcribed into cDNA using random primers and High Capacity cDNA Reverse Transcription kit (Applied Biosystem) at 37° C. for 120 minutes. The cDNA product was then diluted 100 times for real-time PCR analysis using Power SYBR Green PCR master mix (Applied Biosystem), and the default condition in a 20 μl reaction volume by Applied Biosystems 7500 Real-Time PCR System. Data were analyzed by relative quantification methods (ΔΔCt methods) using 7500 software V2.0.1.
(§4) Approximately one million Huh7 and HepG2 cells were transiently transfected by 3 μg plasmid DNA (pSuper and pSuper-miR-130a) with Polyjet (SignaGen), followed by G418 selection for three weeks. The G418-resistant colonies were pooled together.

3′ UTR of PGC1α = experiment: 3′UTR luciferase reporter assay, PGC1α; type: cell-based, human; settings: reporter cotransfection assay
Excerpt: as §2
(§5) An upstream fragment of the miR-130a precursor (−750 to −1 nt), containing putative binding sites for NF-κB/p65, Egr-1, and CREB, was amplified by PCR from human HepG2 genomic DNA. The PCR products were separated by agarose gel electrophoresis, and the isolated DNA fragments were then cloned into the restriction enzyme digested pGL3 Basic Vector (Promega, Madison, Wis.) containing a firefly luciferase reporter (New England Biolab, Ipswich, Mass.). Various promoter deletion plasmids, containing shorter fragments upstream from the miR-130a precursor, were derived from the full-length promoter plasmid by PCR amplification and cloning using various PCR primers (Table 1 above). All the promoter plasmids were confirmed by sequencing. HuH-7 cells were transfected with promoter deletion plasmids for 48 hrs and firefly luciferase activities were then measured and normalized to each cotransfected renilla luciferase level. The full-length 3′UTRs of PPARγ, PGC1α and SP1 were amplified from genomic DNA of HepG2 cells using their respective forward and reverse primers (Table 1), and cloned into a psiCHECK-2 luciferase vector (Promega, Madison, Wis.) (Shih, C. et al. Virology 179, 871-873 (1990)). […]

3′ UTR of PPARγ = experiment: 3′UTR luciferase reporter assay, PPARγ; type: cell-based, human; settings: reporter cotransfection assay
Excerpt: as §2, §5

glucokinase (GCK) = experiment: GCK expression in stable miR-130a expressing cells; type: cell-based, human
Protocol: as §1, §3, §4

NF-κB/p65 = NF-κB/p65 protein level, Western blot; type: cell-based, human; settings: stable miR-130a expressing HepG2 cells
[5] = HBV-transfected Huh7 cells, increasing concentration of compound

| Compound | HBV replication (HBV; [5]) | HBV protein expression (secreted HBsAg and HBeAg) [1, 5] | glucose level (HepG2 cells; HepG2 cells treated with GW9662 (20 uM), irrespective of HBV-producing status) | HBV DNA replication (HBV; HepG2 cells cotransfected with HBV DNA, Southern blot) | level of HBV pregenomic RNA (pgRNA) [2] | HBV protein expression (HBc, HBsAg, HBeAg) ([1]; HepG2 cells) | secretion of HBsAg and HBeAg ([1]; media of HepG2 cotransfected with HBV DNA, ELISA) | luciferase activity, wild type HBV 3′UTR reporter [3] | luciferase activity driven by HBV enhancer-II (HBV enhancer II) | expression levels of most hepatic transcription factors examined [4] | luciferase activity, reporter with 3′UTR of PGC1α (3′ UTR of PGC1α) | luciferase activity, reporter with 3′UTR of PPARγ (3′ UTR of PPARγ) | GCK mRNA expression (glucokinase (GCK); miR-130a expressing hepatocytes, RT-qPCR) | GCK protein expression (glucokinase (GCK); stable miR-130a expressing HepG2 or Huh7 cells, Western blot) | glucose level (HepG2 cells; control versus miR-130a producing cells) | NF-κB/p65 protein level (NF-κB/p65) |
| --- | --- | --- | --- | --- | --- | --- | --- | --- | --- | --- | --- | --- | --- | --- | --- | --- |
| O=C(Nc1ccccc1)c1cc([N+](=O)[O-])ccc1Cl [GW9662, reference compound] | significantly reduced | significantly reduced | further increased |  |  |  |  |  |  |  |  |  |  |  |  |  |
| miR-130a: human microRNA, CAGUGCAAUGUUAAAAGGGCAU (SEQ ID NO:1); given as pSuper expression vector or stable expression |  |  |  | inhibits HBV DNA replication | reduced the level of HBV pregenomic RNA | reduce HBV protein expression | reduces the secretion of HBsAg and HBeAg | no appreciable effect | reduced the luciferase activity driven by HBV enhancer-II | remained unchanged | significantly reduced the luciferase activity | significantly reduced the luciferase activity | increased mRNA expression | not reduced but increased | No significant difference in glucose level | increased significantly |
